Reference: ChEMBL document CHEMBL3526076, “Species-dependent and receptor-selective action of bilobalide on the function of constitutive androstane receptor and pregnane X receptor” (Drug Metab Dispos, 2012)

What was measured:
[1] = target: T1, Nuclear receptor subfamily 1 group I member 3 (Rattus norvegicus, UniProt Q9QUS1); assay: Activation of CAR in rat hepatocytes assessed as increase in CYP2B-mediated benzyloxyresorufin O-dealkylation at 3 uM after 24 hrs by spectrofluorometric analysis relative to phenobarbital; format: ADME, cell-based, Hepatocyte
T1 sequence (Q9QUS1 whole entry): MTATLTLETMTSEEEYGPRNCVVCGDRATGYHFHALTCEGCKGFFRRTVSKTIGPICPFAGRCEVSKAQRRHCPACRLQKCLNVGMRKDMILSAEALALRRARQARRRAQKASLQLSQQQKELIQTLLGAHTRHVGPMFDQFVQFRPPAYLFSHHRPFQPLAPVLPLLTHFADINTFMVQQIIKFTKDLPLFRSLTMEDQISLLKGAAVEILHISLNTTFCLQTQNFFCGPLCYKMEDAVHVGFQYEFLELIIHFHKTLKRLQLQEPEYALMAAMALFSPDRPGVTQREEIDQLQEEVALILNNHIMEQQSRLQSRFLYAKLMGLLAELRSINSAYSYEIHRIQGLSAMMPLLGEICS

[2] = target: T2, Nuclear receptor subfamily 1 group I member 3 (Homo sapiens, UniProt Q14994); assay: Activation of CAR in human Hu1043 hepatocytes assessed as effect on CYP2B6 mRNA expression at 10 to 60 uM after 24 hrs by RT-PCR analysis; format: ADME, cell-based, Hepatocyte
T2 sequence (Q14994 whole entry): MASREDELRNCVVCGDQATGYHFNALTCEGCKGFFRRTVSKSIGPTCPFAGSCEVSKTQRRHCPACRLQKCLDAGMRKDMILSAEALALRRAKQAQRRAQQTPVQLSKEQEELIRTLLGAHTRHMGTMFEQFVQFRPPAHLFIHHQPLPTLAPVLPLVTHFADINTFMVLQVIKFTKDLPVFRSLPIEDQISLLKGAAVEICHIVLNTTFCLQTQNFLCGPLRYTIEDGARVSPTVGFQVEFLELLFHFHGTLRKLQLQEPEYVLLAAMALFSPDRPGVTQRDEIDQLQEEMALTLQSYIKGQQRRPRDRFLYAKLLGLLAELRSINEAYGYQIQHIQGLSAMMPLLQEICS

[3] = target: T2, Nuclear receptor subfamily 1 group I member 3; assay: Activation of CAR in human Hu1108 hepatocytes assessed as increase in CYP2B6-mediated bupropion hydroxylation at 10 to 50 uM after 24 hrs by LC-MS analysis; format: ADME, cell-based, Hepatocyte
[4] = target: T3, Nuclear receptor subfamily 1 group I member 2 (Rattus norvegicus, UniProt Q9R1A7); assay: Activation of rat PXR expressed in human HepG2 cells coexpressing CYP3A4 at 0.1 to 100 uM after 24 hrs by dual luciferase reporter gene assay; format: ADME, cell-based; conditions: hepg2, 24 h
T3 sequence (Q9R1A7 whole entry): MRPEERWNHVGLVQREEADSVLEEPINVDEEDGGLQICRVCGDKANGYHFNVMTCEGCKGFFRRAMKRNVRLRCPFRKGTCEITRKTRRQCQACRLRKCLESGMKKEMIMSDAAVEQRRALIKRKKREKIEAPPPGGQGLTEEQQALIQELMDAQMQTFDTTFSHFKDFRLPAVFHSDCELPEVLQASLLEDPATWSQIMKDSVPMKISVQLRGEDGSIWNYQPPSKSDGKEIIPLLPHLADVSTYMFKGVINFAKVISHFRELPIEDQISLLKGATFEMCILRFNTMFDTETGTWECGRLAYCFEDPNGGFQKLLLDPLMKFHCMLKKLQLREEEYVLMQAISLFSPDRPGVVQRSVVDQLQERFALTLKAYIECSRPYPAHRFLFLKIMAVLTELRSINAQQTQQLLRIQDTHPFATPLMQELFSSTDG

[5] = target: T4, Nuclear receptor subfamily 1 group I member 2 (Homo sapiens, UniProt O75469); assay: Activation of human PXR expressed in human HepG2 cells coexpressing CYP3A4 at 0.1 to 100 uM after 24 hrs by dual luciferase reporter gene assay; format: ADME, cell-based; conditions: hepg2, 24 h
T4 sequence (O75469 whole entry): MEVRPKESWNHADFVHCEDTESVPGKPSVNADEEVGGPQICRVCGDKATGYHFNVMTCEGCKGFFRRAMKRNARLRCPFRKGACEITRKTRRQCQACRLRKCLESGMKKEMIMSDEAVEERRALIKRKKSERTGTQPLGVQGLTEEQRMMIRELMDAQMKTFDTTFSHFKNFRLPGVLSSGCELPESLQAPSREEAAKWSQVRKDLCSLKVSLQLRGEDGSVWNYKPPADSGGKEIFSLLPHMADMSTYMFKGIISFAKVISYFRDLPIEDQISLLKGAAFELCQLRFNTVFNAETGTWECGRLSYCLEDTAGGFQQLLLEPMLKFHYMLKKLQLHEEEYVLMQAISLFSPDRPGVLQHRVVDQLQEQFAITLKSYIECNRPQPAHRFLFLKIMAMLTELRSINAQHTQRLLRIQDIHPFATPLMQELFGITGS

[6] = target: T2, Nuclear receptor subfamily 1 group I member 3; assay: Antagonist activity at human CAR expressed in human HepG2 cells coexpressing CYP2B6 assessed as inhibition of CITCO-induced receptor activation up to 100 uM after 24 hrs by dual luciferase reporter gene assay; format: ADME, cell-based; conditions: hepg2, 24 h
CAR mRNA [7] = assay: Effect on CAR mRNA expression in rat hepatocytes at 1 uM by RT-PCR analysis relative to control; format: ADME, cell-based, Hepatocyte; conditions: read-out: FC
CAR mRNA [8] = assay: Effect on CAR mRNA expression in rat hepatocytes at 3 uM by RT-PCR analysis relative to control; format: ADME, cell-based, Hepatocyte; conditions: read-out: FC
CAR mRNA [9] = assay: Effect on CAR mRNA expression in rat hepatocytes at 10 uM by RT-PCR analysis relative to control; format: ADME, cell-based, Hepatocyte; conditions: read-out: FC
PXR mRNA [10] = assay: Effect on PXR mRNA expression in rat hepatocytes at 1 uM by RT-PCR analysis relative to control; format: ADME, cell-based, Hepatocyte; conditions: read-out: FC
PXR mRNA [11] = assay: Effect on PXR mRNA expression in rat hepatocytes at 3 uM by RT-PCR analysis relative to control; format: ADME, cell-based, Hepatocyte; conditions: read-out: FC
PXR mRNA [12] = assay: Effect on PXR mRNA expression in human hepatocytes at 25 uM by RT-PCR analysis relative to control; format: ADME, cell-based, Hepatocyte; conditions: read-out: FC
[13] = target: T1, Nuclear receptor subfamily 1 group I member 3; assay: Activation of CAR in rat hepatocytes assessed as effect on CYP2B1 mRNA expression at 1 uM after 24 hrs by RT-PCR analysis; format: ADME, cell-based, Hepatocyte
[14] = target: T1, Nuclear receptor subfamily 1 group I member 3; assay: Activation of CAR in rat hepatocytes assessed as upregulation of CYP2B1 mRNA expression at 3 uM after 24 hrs by RT-PCR analysis relative to phenobarbital; format: ADME, cell-based, Hepatocyte
[15] = target: T1, Nuclear receptor subfamily 1 group I member 3; assay: Activation of CAR in rat hepatocytes assessed as increase in CYP2B-mediated benzyloxyresorufin O-dealkylation at 1 uM after 24 hrs by spectrofluorometric analysis relative to phenobarbital; format: ADME, cell-based, Hepatocyte
[16] = target: T1, Nuclear receptor subfamily 1 group I member 3; assay: Activation of rat CAR expressed in rat hepatocytes coexpressing CYP2B1 at 60 uM after 24 hrs by dual luciferase reporter gene assay relative to phenobarbital; format: ADME, cell-based, Hepatocyte
[17] = target: T4, Nuclear receptor subfamily 1 group I member 2; assay: Activation of PXR in human Hu1043 hepatocytes assessed as effect on CYP3A4 mRNA expression at 10 to 60 uM after 24 hrs by RT-PCR analysis; format: ADME, cell-based, Hepatocyte
[18] = target: T4, Nuclear receptor subfamily 1 group I member 2; assay: Activation of PXR in human Hu1108 hepatocytes assessed as effect on CYP3A4 mRNA expression at 10 to 50 uM after 24 hrs by RT-PCR analysis; format: ADME, cell-based, Hepatocyte

CC(C)(C)[C@]1(O)C[C@@H]2OC(=O)C[C@@]23C(=O)O[C@@H]2OC(=O)[C@H](O)[C@]213
Activity [1]: 44% | Activity [2]: Not Active | Activity [3]: Not Active | Activity [4]: Not Active | Activity [5]: Not Active | inhibition (INH) [6]: Not Active | fold induction at 1 µM (CAR mRNA [7]): 1.3 | fold induction at 3 µM (CAR mRNA [8]): 1.3 | fold induction at 10 µM (CAR mRNA [9]): 1.1 | fold induction at 1 µM (PXR mRNA [10]): 1.1 | fold induction at 3 µM (PXR mRNA [11]): 1 | fold induction at 25 µM (PXR mRNA [12]): 1.2 | Activity [13]: Not Active | Activity [14]: 6% | Activity [15]: 30% | Activity [16]: 176% | Activity [17]: Not Active | Activity [18]: Not Active
